In the supplement of paper PMC10307832:

Legend:
Assay in all cases: relative viability (nuclei count vs DMSO), 5 days (fraction); higher = more cells survive
A549 = tested on: A549
In short: (§1)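 Relative viability was taken as the ratio of nuclei in treated wells to nuclei in vehicle wells. Lung cancer cell lines in 1536-well plates received compounds by pin tool one day after seeding, either one drug alone or a fixed anchor-drug dose plus five library-drug doses (not always all listed) in √10 steps. Nuclei were counted on 4× images after 5 days of treatment, and values are medians of duplicate plates.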

Calu-6 = tested on: Calu-6
In short: as §1

EBC-1 = tested on: EBC-1
In short: as §1

HCC-78 = tested on: HCC-78
In short: as §1

IA-LM = tested on: IA-LM
In short: as §1

NCI-H1299 = tested on: NCI-H1299
In short: as §1

NCI-H1703 = tested on: NCI-H1703
In short: as §1

NCI-H2009 = tested on: NCI-H2009
In short: as §1

NCI-H358 = tested on: NCI-H358
In short: as §1

NCI-H460 = tested on: NCI-H460
In short: as §1

NCI-H661 = tested on: NCI-H661
In short: as §1

## CC(=O)O[C@@]12CO[C@@H]1C[C@H](O)[C@@]1(C)C(=O)[C@H](O)C3=C(C)[C@@H](OC(=O)[C@H](O)[C@@H](NC(=O)OC(C)(C)C)c4ccccc4)C[C@@](O)([C@@H](OC(=O)c4ccccc4)[C@H]21)C3(C)C [Docetaxel] + Cc1nc(NC(=O)N2CCC[C@H]2C(N)=O)sc1-c1ccnc(C(C)(C)C(F)(F)F)c1 [Alpelisib] (partner 2 µM)
A549; first compound 0.0002 µM
  relative viability: 0.752
A549; first compound 0.000632 µM
  relative viability: 0.668
A549; first compound 0.002 µM
  relative viability: 0.0866
A549; first compound 0.006325 µM
  relative viability: 0.0749
A549; first compound 0.02 µM
  relative viability: 0.034
Calu-6; first compound 0.0002 µM
  relative viability: 1.03
Calu-6; first compound 0.000632 µM
  relative viability: 0.99
Calu-6; first compound 0.002 µM
  relative viability: 0.432
Calu-6; first compound 0.006325 µM
  relative viability: 0.147
Calu-6; first compound 0.02 µM
  relative viability: 0.115
EBC-1; first compound 0.0002 µM
  relative viability: 0.797
EBC-1; first compound 0.000632 µM
  relative viability: 0.576
EBC-1; first compound 0.002 µM
  relative viability: 0.275
EBC-1; first compound 0.006325 µM
  relative viability: 0.267
EBC-1; first compound 0.02 µM
  relative viability: 0.174
HCC-78; first compound 0.0002 µM
  relative viability: 0.338
HCC-78; first compound 0.000632 µM
  relative viability: 0.279
HCC-78; first compound 0.002 µM
  relative viability: 0.255
HCC-78; first compound 0.006325 µM
  relative viability: 0.24
HCC-78; first compound 0.02 µM
  relative viability: 0.175
IA-LM; first compound 0.0002 µM
  relative viability: 0.595
IA-LM; first compound 0.000632 µM
  relative viability: 0.232
IA-LM; first compound 0.002 µM
  relative viability: 0.116
IA-LM; first compound 0.006325 µM
  relative viability: 0.0821
IA-LM; first compound 0.02 µM
  relative viability: 0.0716
NCI-H1299; first compound 0.0002 µM
  relative viability: 1.05
NCI-H1299; first compound 0.000632 µM
  relative viability: 1.06
NCI-H1299; first compound 0.002 µM
  relative viability: 1.01
NCI-H1299; first compound 0.006325 µM
  relative viability: 0.605
NCI-H1299; first compound 0.02 µM
  relative viability: 0.431
NCI-H1703; first compound 0.0002 µM
  relative viability: 0.406
NCI-H1703; first compound 0.000632 µM
  relative viability: 0.442
NCI-H1703; first compound 0.006325 µM
  relative viability: 0.125
NCI-H1703; first compound 0.02 µM
  relative viability: 0.109
NCI-H2009; first compound 0.0002 µM
  relative viability: 1.13
NCI-H2009; first compound 0.000632 µM
  relative viability: 1.16
NCI-H2009; first compound 0.002 µM
  relative viability: 0.988
NCI-H2009; first compound 0.006325 µM
  relative viability: 0.765
NCI-H2009; first compound 0.02 µM
  relative viability: 0.157
NCI-H358; first compound 0.0002 µM
  relative viability: 0.786
NCI-H358; first compound 0.000632 µM
  relative viability: 0.361
NCI-H358; first compound 0.002 µM
  relative viability: 0.267
NCI-H358; first compound 0.02 µM
  relative viability: 0.111
NCI-H460; first compound 0.0002 µM
  relative viability: 0.303
NCI-H460; first compound 0.000632 µM
  relative viability: 0.185
NCI-H460; first compound 0.002 µM
  relative viability: 0.016
NCI-H460; first compound 0.006325 µM
  relative viability: 0.0118
NCI-H460; first compound 0.02 µM
  relative viability: 0.0069
NCI-H661; first compound 0.0002 µM
  relative viability: 0.468
NCI-H661; first compound 0.000632 µM
  relative viability: 0.582
NCI-H661; first compound 0.002 µM
  relative viability: 0.411
NCI-H661; first compound 0.006325 µM
  relative viability: 0.344
NCI-H661; first compound 0.02 µM
  relative viability: 0.176

## CC(=O)O[C@@]12CO[C@@H]1C[C@H](O)[C@@]1(C)C(=O)[C@H](O)C3=C(C)[C@@H](OC(=O)[C@H](O)[C@@H](NC(=O)OC(C)(C)C)c4ccccc4)C[C@@](O)([C@@H](OC(=O)c4ccccc4)[C@H]21)C3(C)C [Docetaxel] + CS(=O)(=O)CCNCc1ccc(-c2ccc3ncnc(Nc4ccc(OCc5cccc(F)c5)c(Cl)c4)c3c2)o1 [Lapatinib] (partner 2 µM)
A549; first compound 0.0002 µM
  relative viability: 0.972
A549; first compound 0.002 µM
  relative viability: 0.0898
A549; first compound 0.006325 µM
  relative viability: 0.0769
A549; first compound 0.02 µM
  relative viability: 0.0547
Calu-6; first compound 0.0002 µM
  relative viability: 0.982
Calu-6; first compound 0.000632 µM
  relative viability: 0.879
Calu-6; first compound 0.002 µM
  relative viability: 0.286
Calu-6; first compound 0.006325 µM
  relative viability: 0.125
Calu-6; first compound 0.02 µM
  relative viability: 0.112
EBC-1; first compound 0.0002 µM
  relative viability: 0.201
EBC-1; first compound 0.000632 µM
  relative viability: 0.227
EBC-1; first compound 0.002 µM
  relative viability: 0.228
EBC-1; first compound 0.006325 µM
  relative viability: 0.197
EBC-1; first compound 0.02 µM
  relative viability: 0.195
HCC-78; first compound 0.0002 µM
  relative viability: 0.593
HCC-78; first compound 0.000632 µM
  relative viability: 0.634
HCC-78; first compound 0.002 µM
  relative viability: 0.461
HCC-78; first compound 0.006325 µM
  relative viability: 0.246
HCC-78; first compound 0.02 µM
  relative viability: 0.204
IA-LM; first compound 0.0002 µM
  relative viability: 0.46
IA-LM; first compound 0.000632 µM
  relative viability: 0.153
IA-LM; first compound 0.002 µM
  relative viability: 0.0797
IA-LM; first compound 0.006325 µM
  relative viability: 0.069
IA-LM; first compound 0.02 µM
  relative viability: 0.068
NCI-H1299; first compound 0.0002 µM
  relative viability: 0.935
NCI-H1299; first compound 0.000632 µM
  relative viability: 0.968
NCI-H1299; first compound 0.002 µM
  relative viability: 0.704
NCI-H1299; first compound 0.006325 µM
  relative viability: 0.467
NCI-H1299; first compound 0.02 µM
  relative viability: 0.298
NCI-H1703; first compound 0.0002 µM
  relative viability: 1.1
NCI-H1703; first compound 0.000632 µM
  relative viability: 0.664
NCI-H1703; first compound 0.002 µM
  relative viability: 0.219
NCI-H1703; first compound 0.006325 µM
  relative viability: 0.157
NCI-H1703; first compound 0.02 µM
  relative viability: 0.148
NCI-H2009; first compound 0.0002 µM
  relative viability: 0.965
NCI-H2009; first compound 0.000632 µM
  relative viability: 0.922
NCI-H2009; first compound 0.002 µM
  relative viability: 0.412
NCI-H2009; first compound 0.006325 µM
  relative viability: 0.195
NCI-H2009; first compound 0.02 µM
  relative viability: 0.12
NCI-H358; first compound 0.0002 µM
  relative viability: 0.426
NCI-H358; first compound 0.000632 µM
  relative viability: 0.357
NCI-H358; first compound 0.002 µM
  relative viability: 0.332
NCI-H358; first compound 0.02 µM
  relative viability: 0.149
NCI-H460; first compound 0.0002 µM
  relative viability: 0.665
NCI-H460; first compound 0.000632 µM
  relative viability: 0.163
NCI-H460; first compound 0.002 µM
  relative viability: 0.0209
NCI-H460; first compound 0.006325 µM
  relative viability: 0.0147
NCI-H460; first compound 0.02 µM
  relative viability: 0.0097
NCI-H661; first compound 0.0002 µM
  relative viability: 0.495
NCI-H661; first compound 0.000632 µM
  relative viability: 0.516
NCI-H661; first compound 0.002 µM
  relative viability: 0.4
NCI-H661; first compound 0.006325 µM
  relative viability: 0.369
NCI-H661; first compound 0.02 µM
  relative viability: 0.245
